Test results as given in article PMC4714714 (Journal of medicinal chemistry, 2015).
Like-named read-outs stand apart in the source and are kept apart here.

What was measured:
[1] = system: KB human nasopharyngeal carcinoma cells (FRα/PCFT/RFC); experiment: Growth inhibition of KB human tumor cells; format: cell-based
[2] = system: SKOV3 human ovarian tumor xenografts; experiment: In vivo efficacy trial against SKOV3 xenografts in SCID mice; settings: folate-deficient diet; 4 28 mg/kg, 7 16 mg/kg i.v. Q4dx3
DHFR = molecular target: T1, DHFR (Homo sapiens, UniProt P00374); experiment: Isolated enzyme assay DHFR; format: biochemical; settings: nucleoside protection and isolated enzyme assays (not shown)
T1 sequence (P00374 1-187): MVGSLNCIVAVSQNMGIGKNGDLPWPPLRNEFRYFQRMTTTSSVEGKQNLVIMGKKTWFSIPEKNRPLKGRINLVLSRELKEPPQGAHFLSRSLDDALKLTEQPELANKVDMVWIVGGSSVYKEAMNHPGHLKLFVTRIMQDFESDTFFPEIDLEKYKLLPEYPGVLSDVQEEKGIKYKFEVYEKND

TS = TS (Homo sapiens, UniProt P04818); experiment: Isolated enzyme assay TS; format: biochemical; settings: nucleoside protection and isolated enzyme assays (not shown)
FRα = FRα (Homo sapiens, UniProt P15328); experiment: [3H]folic acid competition binding to FRα on RT16 CHO cells
FRβ = FRβ (Homo sapiens, UniProt P14207); experiment: [3H]folic acid competition binding to FRβ on D4 CHO cells
[3] = molecular target: T2, recombinant human GARFTase (Homo sapiens, UniProt P22102); experiment: In vitro GARFTase inhibition assay; format: biochemical; settings: from Ki values
T2 sequence (P22102 810-1010 limits assumed): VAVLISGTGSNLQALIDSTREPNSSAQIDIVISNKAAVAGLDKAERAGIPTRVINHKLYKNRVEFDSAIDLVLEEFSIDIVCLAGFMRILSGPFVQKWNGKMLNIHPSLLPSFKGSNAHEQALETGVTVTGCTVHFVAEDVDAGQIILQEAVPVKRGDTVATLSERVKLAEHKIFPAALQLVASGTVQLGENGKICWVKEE

PCFT = molecular target: T3, PCFT (Homo sapiens, UniProt Q96NT5); experiment: PCFT uptake and transport kinetics in R2/PCFT4 CHO cells; format: cell-based
T3 sequence (Q96NT5 1-459): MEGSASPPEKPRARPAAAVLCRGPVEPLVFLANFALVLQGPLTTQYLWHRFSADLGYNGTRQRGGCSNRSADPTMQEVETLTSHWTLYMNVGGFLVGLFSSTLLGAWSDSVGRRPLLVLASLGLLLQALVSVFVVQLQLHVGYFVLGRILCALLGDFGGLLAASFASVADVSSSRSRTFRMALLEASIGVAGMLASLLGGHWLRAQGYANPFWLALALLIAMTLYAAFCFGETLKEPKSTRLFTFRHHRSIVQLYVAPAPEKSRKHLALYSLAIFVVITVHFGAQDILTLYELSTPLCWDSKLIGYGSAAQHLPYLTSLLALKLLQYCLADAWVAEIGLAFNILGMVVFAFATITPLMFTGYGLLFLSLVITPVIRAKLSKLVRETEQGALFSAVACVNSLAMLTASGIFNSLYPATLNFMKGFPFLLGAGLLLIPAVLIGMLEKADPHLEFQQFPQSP

[4] = read-out: IC50 for inhibition of proliferation, KB

Chain of TS (P04818 whole entry): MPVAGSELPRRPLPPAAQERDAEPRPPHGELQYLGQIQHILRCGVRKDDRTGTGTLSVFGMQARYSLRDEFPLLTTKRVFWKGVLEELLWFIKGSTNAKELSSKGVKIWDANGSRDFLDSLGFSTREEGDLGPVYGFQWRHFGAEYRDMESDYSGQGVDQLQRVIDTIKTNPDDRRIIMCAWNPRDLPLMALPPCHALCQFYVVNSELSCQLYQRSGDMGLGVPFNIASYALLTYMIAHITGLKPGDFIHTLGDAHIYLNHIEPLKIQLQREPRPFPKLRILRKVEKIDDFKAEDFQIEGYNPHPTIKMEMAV
Chain of FRβ (P14207 17-255): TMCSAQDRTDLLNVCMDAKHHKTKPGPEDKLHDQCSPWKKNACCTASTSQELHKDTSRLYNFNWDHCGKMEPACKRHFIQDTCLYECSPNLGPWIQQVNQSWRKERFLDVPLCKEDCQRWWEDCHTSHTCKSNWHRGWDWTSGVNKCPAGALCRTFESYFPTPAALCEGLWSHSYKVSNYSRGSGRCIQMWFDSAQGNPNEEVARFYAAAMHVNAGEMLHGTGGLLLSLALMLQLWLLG
Chain of FRα (P15328 25-257): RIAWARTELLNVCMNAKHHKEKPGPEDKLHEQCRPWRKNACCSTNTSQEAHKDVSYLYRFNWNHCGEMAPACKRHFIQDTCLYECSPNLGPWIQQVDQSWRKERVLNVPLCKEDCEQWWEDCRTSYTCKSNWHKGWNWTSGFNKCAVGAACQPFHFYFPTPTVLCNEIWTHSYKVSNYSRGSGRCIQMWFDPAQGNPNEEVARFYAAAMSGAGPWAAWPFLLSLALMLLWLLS

Row | SMILES | IC50 [1, 4] [nM] | tumor growth delay (T–C value) [2] [days] | inhibition of DHFR (DHFR) | inhibition of TS (TS) | other results
1 | C#CCC(Cc1cnc2nc(N)nc(N)c2n1)c1ccc(C(=O)N[C@@H](CCC(=O)O)C(=O)O)cc1 (stereo partly drawn) [PDX, N-(4-{1-[(2,4-diaminopteridin-6-yl)methyl]but-3-yn-1-yl}-benzoyl)-L-glutamic acid] | 0.47 |  |  |  | IC50 ([1]; read-out: IC50 for inhibition of proliferation, KB (+FA)): 1.94 nM
2 | Nc1nc2[nH]c(CCCc3ccc(C(=O)N[C@@H](CCC(=O)O)C(=O)O)s3)cc2c(=O)[nH]1 [compound 4] | 0.26 | 13 |  |  | 
3 | Nc1nc(N)c2c(CCCc3csc(C(=O)N[C@@H](CCC(=O)O)C(=O)O)c3)coc2n1 [compound 6, (S)-2-({4-[3-(2,4-Diamino-furo[2,3-d]pyrimidin-5-yl)-propyl]-thiophene-2 carbonyl}-amino)-pentanedioic Acid] |  |  | Neither 6 nor 8 were potent inhibitors of DHFR or TS | Neither 6 nor 8 were potent inhibitors of DHFR or TS | 
4 | Nc1nc2[nH]c(CCCc3cc(C(=O)N[C@@H](CCC(=O)O)C(=O)O)cs3)cc2c(=O)[nH]1 [compound 7, (S)-2-({5-[3-(2-Amino-4-oxo-4,7-dihydro-3H-pyrrolo[2,3-d]-pyrimidin-6-yl)-propyl]-thiophene-3-carbonyl}-amino)-pentanedioic Acid] |  | 13 |  |  | relative binding affinity to FRα, % of that for folic acid (FRα): approximately 60 % of that for folic acid; relative binding affinity to FRβ, % of the affinity for folic acid (FRβ): 35–40 % of the affinity for folic acid; fold more potent as inhibitor of human GARFTase than 4 [3]: ~ 7 fold; fold more potent as inhibitor of human GARFTase than PMX [3]: > 100 fold; PCFT uptake of [3H]7 in excess of that for [3H]PMX (PCFT; 0.5 μM, pH 5.5, 37 °C): ~ 40%; Vmax, PCFT transport, pH 5.5 (PCFT; pH 5.5): 24.62 (±6.60) pmol/mg/min; Vmax, PCFT transport, pH 6.8 (PCFT; pH 6.8): 3.0 (±0.3) pmol/mg/min
5 | Nc1nc(N)c2c(CCCc3cc(C(=O)N[C@@H](CCC(=O)O)C(=O)O)cs3)coc2n1 [compound 8, (S)-2-({5-[3-(2,4-Diamino-furo[2,3-d]pyrimidin-5-yl)-propyl]-thiophene-3-carbonyl}-amino)-pentanedioic Acid] |  |  | Neither 6 nor 8 were potent inhibitors of DHFR or TS | Neither 6 nor 8 were potent inhibitors of DHFR or TS | 
